What follows are compounds tested against Tyrosine-protein kinase JAK1 (Homo sapiens, UniProt P23458) (assay: JAK1 Kinase Inhibitory Activity Determination).
Sequence of Tyrosine-protein kinase JAK1 (P23458 whole entry): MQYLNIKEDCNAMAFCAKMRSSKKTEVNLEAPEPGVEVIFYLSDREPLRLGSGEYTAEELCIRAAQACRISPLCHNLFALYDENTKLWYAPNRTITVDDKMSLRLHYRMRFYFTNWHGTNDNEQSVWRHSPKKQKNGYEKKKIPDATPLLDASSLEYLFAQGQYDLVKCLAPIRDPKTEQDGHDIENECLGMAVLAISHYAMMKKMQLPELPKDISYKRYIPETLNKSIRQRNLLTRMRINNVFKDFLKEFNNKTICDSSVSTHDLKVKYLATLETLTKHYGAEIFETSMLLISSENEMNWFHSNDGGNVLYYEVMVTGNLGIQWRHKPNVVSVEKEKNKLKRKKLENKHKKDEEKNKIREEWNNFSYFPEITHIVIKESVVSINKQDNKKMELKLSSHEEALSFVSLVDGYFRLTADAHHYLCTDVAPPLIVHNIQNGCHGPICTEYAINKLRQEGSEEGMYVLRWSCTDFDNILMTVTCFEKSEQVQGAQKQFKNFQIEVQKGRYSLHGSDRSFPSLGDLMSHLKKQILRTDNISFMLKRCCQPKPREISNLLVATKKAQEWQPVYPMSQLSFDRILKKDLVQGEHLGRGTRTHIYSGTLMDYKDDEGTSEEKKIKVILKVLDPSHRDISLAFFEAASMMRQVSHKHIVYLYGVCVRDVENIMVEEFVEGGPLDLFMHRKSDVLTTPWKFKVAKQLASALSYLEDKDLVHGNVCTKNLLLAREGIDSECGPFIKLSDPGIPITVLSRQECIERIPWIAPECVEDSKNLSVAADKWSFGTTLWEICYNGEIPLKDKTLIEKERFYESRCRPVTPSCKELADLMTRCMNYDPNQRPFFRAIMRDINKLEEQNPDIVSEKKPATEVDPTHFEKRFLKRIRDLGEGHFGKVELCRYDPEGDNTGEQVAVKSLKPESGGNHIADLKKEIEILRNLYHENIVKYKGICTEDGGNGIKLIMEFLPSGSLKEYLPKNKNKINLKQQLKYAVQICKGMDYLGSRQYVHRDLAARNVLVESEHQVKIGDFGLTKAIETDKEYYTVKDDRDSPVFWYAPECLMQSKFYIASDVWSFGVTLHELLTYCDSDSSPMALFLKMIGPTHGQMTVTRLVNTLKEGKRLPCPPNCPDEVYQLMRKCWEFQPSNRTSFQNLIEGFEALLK
In the case of `CS(=O)(=O)C1CN(Cc2ccc(-c3cccc4nc(NC(=O)C5CC5)cn34)cc2)C1` [US20240368161, Compound 15], the IC50 is reported as 0.137 µM. `CS(=O)(=O)C1CCN(Cc2ccc(-c3cccc4nc(NC(=O)C5CC5)cn34)cc2)CC1` [US20240368161, Compound 16] showed an IC50 of 0.0744 µM. `CS(=O)(=O)C1CCN(Cc2ccc(-c3cccc4nc(NC(=O)C5CC5)cn34)c(F)c2)CC1` [US20240368161, Compound 20] showed an IC50 of 0.262 µM. Work on `CCCS(=O)(=O)C1CCN(Cc2ccc(-c3cccc4nc(NC(=O)C5CC5)cn34)cc2)CC1` [US20240368161, Compound 31] yielded an IC50 of 0.611 µM. With `O=C(Nc1cn2c(-c3ccc(OC4CCS(=O)(=O)CC4)cc3)cccc2n1)C1CC1` [US20240368161, Compound 17] the IC50 was 0.125 µM.

Each compound was assayed against Tyrosine-protein kinase JAK2 (Homo sapiens, UniProt O60674) (assay: JAK2 Kinase Inhibitory Activity Determination).
Sequence of Tyrosine-protein kinase JAK2 (O60674 whole entry): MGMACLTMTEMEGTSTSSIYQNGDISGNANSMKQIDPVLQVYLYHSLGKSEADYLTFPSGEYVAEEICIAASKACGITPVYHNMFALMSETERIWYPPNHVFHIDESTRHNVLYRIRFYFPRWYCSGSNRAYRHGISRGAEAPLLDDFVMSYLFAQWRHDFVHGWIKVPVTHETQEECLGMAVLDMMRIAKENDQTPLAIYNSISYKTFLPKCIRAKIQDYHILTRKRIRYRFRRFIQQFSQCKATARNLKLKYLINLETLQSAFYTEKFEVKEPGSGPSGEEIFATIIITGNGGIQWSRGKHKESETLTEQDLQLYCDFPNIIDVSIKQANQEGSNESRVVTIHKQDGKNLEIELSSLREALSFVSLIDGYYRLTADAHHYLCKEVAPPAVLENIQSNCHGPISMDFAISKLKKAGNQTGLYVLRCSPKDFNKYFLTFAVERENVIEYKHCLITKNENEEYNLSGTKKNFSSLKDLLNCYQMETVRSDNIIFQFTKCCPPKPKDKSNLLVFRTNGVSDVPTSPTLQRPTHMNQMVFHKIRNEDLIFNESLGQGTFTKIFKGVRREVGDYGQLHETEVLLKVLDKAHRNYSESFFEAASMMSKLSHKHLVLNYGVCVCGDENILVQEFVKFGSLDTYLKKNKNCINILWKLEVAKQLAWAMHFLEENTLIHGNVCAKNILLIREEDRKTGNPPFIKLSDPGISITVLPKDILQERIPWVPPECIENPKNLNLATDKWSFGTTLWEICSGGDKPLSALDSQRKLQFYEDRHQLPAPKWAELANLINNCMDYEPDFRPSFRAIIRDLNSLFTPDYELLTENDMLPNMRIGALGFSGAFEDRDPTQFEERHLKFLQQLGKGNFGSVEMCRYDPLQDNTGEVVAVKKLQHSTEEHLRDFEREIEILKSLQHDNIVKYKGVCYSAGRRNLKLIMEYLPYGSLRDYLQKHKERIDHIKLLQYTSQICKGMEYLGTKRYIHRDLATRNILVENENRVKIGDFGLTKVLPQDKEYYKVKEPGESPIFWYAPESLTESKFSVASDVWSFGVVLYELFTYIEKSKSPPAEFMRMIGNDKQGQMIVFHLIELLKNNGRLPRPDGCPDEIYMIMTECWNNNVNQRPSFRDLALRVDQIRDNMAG
In the case of `CS(=O)(=O)C1CN(Cc2ccc(-c3cccc4nc(NC(=O)C5CC5)cn34)cc2)C1` [US20240368161, Compound 15], the IC50 is reported as 0.232 µM. In the case of `CS(=O)(=O)C1CCN(Cc2ccc(-c3cccc4nc(NC(=O)C5CC5)cn34)cc2)CC1` [US20240368161, Compound 16], the IC50 is reported as 0.127 µM. Compound `CS(=O)(=O)C1CCN(Cc2ccc(-c3cccc4nc(NC(=O)C5CC5)cn34)c(F)c2)CC1` [US20240368161, Compound 20] has an IC50 of 0.176 µM. For `CCCS(=O)(=O)C1CCN(Cc2ccc(-c3cccc4nc(NC(=O)C5CC5)cn34)cc2)CC1` [US20240368161, Compound 31], the IC50 was 0.229 µM. `O=C(Nc1cn2c(-c3ccc(OC4CCS(=O)(=O)CC4)cc3)cccc2n1)C1CC1` [US20240368161, Compound 17] was tested, and the IC50 was 0.0727 µM.

The compounds below were run against T1, Tyrosine-protein kinase JAK3 (Homo sapiens, UniProt P52333) (assay: JAK3 Kinase Inhibitory Activity Determination).
T1 sequence (P52333 whole entry): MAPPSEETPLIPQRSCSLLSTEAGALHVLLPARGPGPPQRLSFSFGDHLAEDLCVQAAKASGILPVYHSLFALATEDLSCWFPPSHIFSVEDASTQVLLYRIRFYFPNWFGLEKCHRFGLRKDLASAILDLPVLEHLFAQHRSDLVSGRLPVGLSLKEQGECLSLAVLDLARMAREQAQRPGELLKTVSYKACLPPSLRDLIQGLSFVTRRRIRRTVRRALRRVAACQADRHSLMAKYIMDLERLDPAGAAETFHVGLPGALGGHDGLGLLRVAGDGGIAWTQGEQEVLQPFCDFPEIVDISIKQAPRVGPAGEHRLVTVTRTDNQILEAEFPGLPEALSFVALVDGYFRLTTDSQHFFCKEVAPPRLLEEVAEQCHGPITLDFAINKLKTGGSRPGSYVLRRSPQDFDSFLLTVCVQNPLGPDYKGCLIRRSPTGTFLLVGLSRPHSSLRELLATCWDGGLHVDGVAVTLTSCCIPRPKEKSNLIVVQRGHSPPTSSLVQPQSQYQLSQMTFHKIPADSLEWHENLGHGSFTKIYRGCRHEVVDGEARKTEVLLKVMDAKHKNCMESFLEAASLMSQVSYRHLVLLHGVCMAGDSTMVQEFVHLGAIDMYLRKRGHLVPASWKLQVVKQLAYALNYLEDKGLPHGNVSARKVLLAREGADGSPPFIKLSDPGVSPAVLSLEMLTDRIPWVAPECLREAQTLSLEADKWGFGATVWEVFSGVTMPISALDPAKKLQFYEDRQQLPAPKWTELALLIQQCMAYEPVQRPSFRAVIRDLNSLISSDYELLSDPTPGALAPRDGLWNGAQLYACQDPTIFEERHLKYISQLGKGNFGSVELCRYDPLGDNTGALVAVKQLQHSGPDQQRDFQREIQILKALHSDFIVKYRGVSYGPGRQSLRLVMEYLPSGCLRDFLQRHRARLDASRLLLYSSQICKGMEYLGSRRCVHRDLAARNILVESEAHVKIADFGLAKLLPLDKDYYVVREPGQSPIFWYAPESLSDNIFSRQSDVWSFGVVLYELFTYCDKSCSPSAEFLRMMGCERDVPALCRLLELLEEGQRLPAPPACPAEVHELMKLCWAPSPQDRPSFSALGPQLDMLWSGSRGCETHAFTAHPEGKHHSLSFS
Procedure: At the end of incubation, HTRF665/620 signals were read on a multifunctional microplate reader.
`CS(=O)(=O)C1CN(Cc2ccc(-c3cccc4nc(NC(=O)C5CC5)cn34)cc2)C1` [US20240368161, Compound 15] showed an IC50 of 3.17 µM. `CS(=O)(=O)C1CCN(Cc2ccc(-c3cccc4nc(NC(=O)C5CC5)cn34)cc2)CC1` [US20240368161, Compound 16] gave an IC50 of 3.12 µM. For `CS(=O)(=O)C1CCN(Cc2ccc(-c3cccc4nc(NC(=O)C5CC5)cn34)c(F)c2)CC1` [US20240368161, Compound 20], the IC50 was 5.76 µM. `CCCS(=O)(=O)C1CCN(Cc2ccc(-c3cccc4nc(NC(=O)C5CC5)cn34)cc2)CC1` [US20240368161, Compound 31] gave an IC50 of 6.9 µM. `O=C(Nc1cn2c(-c3ccc(OC4CCS(=O)(=O)CC4)cc3)cccc2n1)C1CC1` [US20240368161, Compound 17] was tested, and the IC50 was 1.46 µM.

Source: BindingDB's records for patent US20240368161 (Cgenetech (Suzhou, China), 2024)
